# Activity calls are given as the source filed them. No cut-off for these calls is given here.
# Columns and labels:
# [1] = Inhibition of yeast alpha-glucosidase using PNP glycoside as substrate after 30 mins by spectrophotometry; parameters: species or system Saccharomyces cerevisiae
# [2] = Non competitive inhibition of yeast alpha-glucosidase using PNP glycoside as substrate preincubated for 30 mins by Lineweaver-Burk plot analysis; parameters: species or system Saccharomyces cerevisiae
# Saccharomyces cerevisiae [3] = test: Non competitive inhibition of yeast alpha-glucosidase using PNP glycoside as substrate at 25.4 uM preincubated for 30 mins by Lineweaver-Burk plot analysis
# Saccharomyces cerevisiae [4] = test: Ratio of 1,3-dihydroxy-9H-xanthen-9-one IC50 to compound IC50 for yeast alpha-glucosidase
# Saccharomyces cerevisiae [5] = test: Ratio of 1,3,6-trihydroxy-9H-xanthen-9-one IC50 to compound IC50 for yeast alpha-glucosidase
# Saccharomyces cerevisiae [6] = test: Non competitive inhibition of yeast alpha-glucosidase using PNP glycoside as substrate at 15.3 uM preincubated for 30 mins by Lineweaver-Burk plot analysis
# Saccharomyces cerevisiae [7] = test: Ratio of 1,3,6,8-tetrahydroxy-9H-xanthen-9-one IC50 to compound IC50 for yeast alpha-glucosidase
# Saccharomyces cerevisiae [8] = test: Non competitive inhibition of yeast alpha-glucosidase using PNP glycoside as substrate at 34.8 uM preincubated for 30 mins by Lineweaver-Burk plot analysis
# Saccharomyces cerevisiae [9] = test: Ratio of 1,3-dihydroxy-7-methyl-9H-xanthen-9-one IC50 to compound IC50 for yeast alpha-glucosidase
SMILES,IC50 [1] [µM],other results
Cc1ccc2oc3cc(O)cc(O)c3c(=O)c2c1,> 200,
O=c1c2ccc(O)cc2oc2c(-c3c(O)ccc4ccccc34)c(O)c(-c3c(O)ccc4ccccc34)c(O)c12,6.2,
OC[C@H]1NC[C@H](O)[C@@H](O)[C@@H]1O [DUVOGLUSTAT],40,
O=c1c2c(O)cc(O)cc2oc2cc(O)c(-c3c(O)ccc4ccc(O)cc34)c(O)c12,17.4,Ki [2]: 50.9 µM; inhibition (Saccharomyces cerevisiae [3]): Active
Cc1ccc2oc3c(-c4c(O)ccc5ccccc45)c(O)c(-c4c(O)ccc5ccccc45)c(O)c3c(=O)c2c1,6.4,
O=c1c2c(O)cc(O)cc2oc2cc(O)c(-c3c(O)ccc4ccccc34)c(O)c12,8.1,Ki [2]: 29.2 µM; inhibition (Saccharomyces cerevisiae [6]): Active; Ratio IC50 (Saccharomyces cerevisiae [7]): 2
O=c1c2ccccc2oc2cc(O)c(-c3c(O)ccc4ccc(O)cc34)c(O)c12,75.4,
O=c1c2c(O)cc(O)cc2oc2cc(O)cc(O)c12,17.2,Ki [2]: 62.8 µM; inhibition (Saccharomyces cerevisiae [8]): Active
Cc1ccc2oc3cc(O)c(-c4c(O)ccc5ccccc45)c(O)c3c(=O)c2c1,26.5,Ratio IC50 (Saccharomyces cerevisiae [9]): 2

# More lines, in order of falling IC50 [1], values ahead:
IC50 [1] [µM],SMILES,other results
161,O=c1c2ccccc2oc2cc(O)cc(O)c12,
112,Cc1ccc2oc3cc(O)c(-c4c(O)ccc5ccc(O)cc45)c(O)c3c(=O)c2c1,
47.7,O=c1c2ccccc2oc2cc(O)c(-c3c(O)ccc4ccccc34)c(O)c12,Ratio IC50 (Saccharomyces cerevisiae [4]): 2
47.6,O=c1c2ccc(O)cc2oc2cc(O)c(-c3c(O)ccc4ccc(O)cc34)c(O)c12,
41.5,O=c1c2ccc(O)cc2oc2cc(O)cc(O)c12,
10.5,O=c1c2ccc(O)cc2oc2cc(O)c(-c3c(O)ccc4ccccc34)c(O)c12,Ratio IC50 (Saccharomyces cerevisiae [5]): 2
10.1,O=c1c2ccccc2oc2c(-c3c(O)ccc4ccccc34)c(O)c(-c3c(O)ccc4ccccc34)c(O)c12,

# From ChEMBL document CHEMBL1821558, “Toward potent α-glucosidase inhibitors based on xanthones: a closer look into the structure-activity correlations” (Eur J Med Chem, 2011)
